By EC50 is commonly meant the concentration giving half of the maximal effect.

The source of these data is patent US11267780B2, “Compound for modulating DDAH and ADMA levels, as well as methods of using thereof to treat disease” (THE TRUSTEES OF INDIANA UNIVERITY, priority 2018, dated 2022).

The subject of assay [1] is DDAH-1 protein. Briefly: DDAH western blot analysis in human pulmonary artery smooth muscle cells. To be noted: 24 hours. The assay is classed as cell-based. The procedure: (§1) DDAH and Collagen western blot analysis. Human umbilical vein endothelial cells (HUVEC), retinal endothelial cells and vascular smooth muscle cells from Lonza were transferred to 6 well plates at a density of 4.0×10^5/well and incubated overnight. Various concentrations of test compounds were then added. After 24 hours, medium was removed, the cells were scraped and collected in 50 μL of lysis buffer containing 50 mM Tris-HCl, 0.25% deoxycholic acid, 1% NP-40, 1 mM EDTA and protease inhibitor cocktails. Cell extract was subjected to SDS polyacrylamide gel electrophoresis. Proteins from the 12% polyacrylamide gels were transferred to PVDF membranes for westerns and blotted with DDAH or collagen 1 antibodies from Abcam.
(§2) Expression of DDAH was determined in human pulmonary artery smooth muscle cells (FIG. 1A) and human retinal microvascular endothelial cells (FIG. 1B). Cells were treated with different concentrations of VN-317. After 24 hours, cells were extracted in lysis buffer as described under methods. Extracts were subjected to SDS gel electrophoresis. Proteins from SDS gel were transferred to PVDF membrane and for western blotting using DDAH-1 antibodies. […] Therese data illustrate differential modulation of DDAH by VN-317 in different cell types.
(In general: Immunoblotting shows a protein as a band on a membrane.)

In assay [2] the test system is DDAH promoter. The assay is described as follows: DDAH promoter activation assay (DDAH promoter-Luciferase reporter). The assay is classed as cell-based. The method, then:
DDAH promoter activation assay. Activation of DDAH promoter was determined using a DDAH promoter-Luciferase reporter assay. DDAH promoter DNA sequence was cloned in pGL4.10 luciferase reporter plasmid. For transfection of HEK-293 cells, the cells were seeded in six well plates at a density of 2.0×10^5 cells/well. After 24 hours, the cells were transfected with the DDAH promoter plasmid by adding 200 ng DNA/well and incubated for 24 hours. Transfected cells were then transferred to 96 well plates at 50,000 cells/well and incubated overnight with various concentrations of the test compounds. The medium was removed from the wells and 20 μL of lysis reagent was added. After 5 min, 100 μL Luciferase assay reagent was added, and luminescence was measured.

Assay [3] relates to DDAH-1 protein. Briefly: DDAH western blot analysis in human retinal microvascular endothelial cells. The assay is classed as cell-based. As to conditions: 24 hours. The method, then:
as §1, §2

Assay [4] deals with monocrotalin induced PAH. Briefly: Rat model of monocrotalin induced PAH. In kind it is in vivo. To be noted: 1 mg/kg s.c. once a day. The method, then:
A rat model of monocrotalin induced PAH was used for in vivo studies. Male Sprague Dawley rats about 250 g were purchased from Charles river. PAH was induced by a single s.c. injection of 60 mg/kg monocrotalin. VN-317 (1 mg/kg) or vehicle was administered subcutaneously on day one and once a day thereafter. After 6 weeks, the disease development was determined by pulmonary artery (PA) pressure measurements, echocardiography, and histology. PA pressure was determined by right heart catheterization using a 1.4-F micromanometer-tipped Millar catheter with fluoroscopy guidance. Transthoracic echocardiography was performed using a GE vivid i with 5.0-13.0 MHz il2L-RS linear array transducer. Pulmonary artery acceleration time (PAAT) was measured using pulse-wave Doppler echocardiography with the sample volume centrally positioned in the PA distal to the pulmonary valve. M-mode was applied to measure the right ventricular cavity thickness during end diastole using the parasternal long-axis view obtained from the right side of the rat. Tissue and blood samples were collected at termination. Tissues were fixed in 10% formalin, embedded in paraffin, and then processed for histomorphometry. Macrophage in lung tissues were determined by immunostaining using CD68 antibodies.

The subject of assay [5] is collagen 1. Briefly: Collagen western blot analysis in myofibroblast like smooth muscle cells. In kind it is cell-based. As to conditions: in response to TGF-beta, 48 hours. The method, then:
as §1
Cells were treated with VN-317 in the presence or absence of TGF-beta. After 48 hours, cells were extracted in 50 ul lysis buffer and cell extract was subjected to SDS gel electrophoresis. Proteins from the 12% polyacrylamide gels were transferred to PVDF membranes for westerns and blotted collagen 1a antibodies from Abcam.

Setting [6] is: Table 1, stilbene-based ADMA-modulating agents.
[7] abbreviates: after 6 weeks, echocardiography.
The mark [8] stands for this setting: Table 3, other ADMA-lowering agents.
Where [9] appears, read: Table 2, ADMA-lowering agents including heterocycles.

“Also recorded” adds a separate entry of the source.

Regarding `Cc1cc(O)ccc1/C=C/c1cccc(C(=O)O)c1` [VN-317, (E)-3-(4-hydroxy-2-methylstyryl)benzoic acid], the “DDAH-1 protein expression (western blot)” value in assay [1] is on record as “enhancing; also recorded: enhanced”. The molecule further yielded an EC50 in assay [2] (setting [6]) of 7 nM. The “DDAH-1 protein expression (western blot)” value in assay [3] is on record as “reducing; also recorded: reduced”. Also, in assay [4] (after 6 weeks), the “inflammation in the lung (CD68 immuno-staining)” value is given as “dramatic reduction; also recorded: reduced”, the “pulmonary artery medial thickening (histology)” value is reported as “open artery; also recorded: reduced”, the “pulmonary artery pressure (PAP)” value was “significantly reduced” and the “vascular disease in the lung” value is recorded as “reduced”. Also, in assay [4] (setting [7]), the “pulmonary artery blood acceleration time (PAAT)” value is given as “increased” and the “right ventricle cavity thickness” value is “reduced”. Moreover, the body weight loss entry in assay [4] (over 6 weeks) is “prevented”. Further, the mortality result in assay [4] (until week 6, N=6) was “none and reduced”. For the same molecule, the “collagen production (western blot)” value in assay [5] was “reduced”.

As for `O=C(O)c1cccc(/C=C/c2ccc(O)cc2)c1` [VN-328, (E)-3-(4-hydroxystyryl)benzoic acid], the midpoint of the response in assay [2] (setting [6]), the EC50, lay at 18.6 nM. The same measure, in the same setting: next, `Cc1ccccc1/C=C/c1cccc(C(=O)O)c1` [VN-329, (E)-3-(2-methylstyryl)benzoic acid]: 8.7 nM; `O=C(O)c1cccc(/C=C/c2ccccc2)c1` [VN-330, (E)-3-styrylbenzoic acid]: 53 nM. Molecule `COc1ccc(/C=C/c2cccc(C(=O)O)c2)c(C)c1` [VN-333, (E)-3-(4-methoxy-2-methylstyryl)benzoic acid] registered a concentration for a half-maximal effect (EC50) in assay [2] (setting [6]) of 1.8 nM.

With `O=C(O)c1cccc(/C=C\c2ccccc2)c1` [VN-339, (Z)-3-styrylbenzoic acid], the “EC50 nM” value in assay [2] (setting [6]) is listed as “Ambiguous”. Molecule `COc1ccc(/C=C\c2cccc(C(=O)O)c2)c(C)c1` [VN-342, (Z)-3-(4-methoxy-2-methylstyryl)benzoic acid] showed an EC50 in assay [2] (setting [6]) of 81.5 nM. As to `O=C(O)c1cccc([C@H]2C[C@@H]2c2ccccc2)c1` [VN-347, 3-((1S,2S)-2-phenylcyclopropyl)benzoic acid], in assay [2] (setting [8]), the midpoint of the response, the EC50, lay at 3.3 nM. Turning to `O=C(O)c1cccc(/C=C/c2cocn2)c1` [VN-351, (E)-3-(2-(oxazol-4-yl)vinyl)benzoic acid], a half-maximal response in assay [2] (setting [9]) (EC50) required 87 nM. For the molecule `O=C(O)c1cccc(/C=C/c2cccnc2)c1` [VN-353, (E)-3-(2-(pyridin-3-yl)vinyl)benzoic acid], the EC50 in assay [2] (setting [9]) came to 58 nM.

For the molecule `O=C(O)c1cccc(/C=C/c2cccnc2)c1` [VN-354, (E)-3-(2-(pyridin-3-yl)vinyl)benzoic acid], a half-maximal effect in assay [2] (setting [9]) (EC50) was put at 672 nM.

For the molecule `O=C(O)c1cccc(/C=C/c2ccncc2)c1` [VN-355, (E)-3-(2-(pyridin-4-yl)vinyl)benzoic acid], the EC50 in assay [2] (setting [9]) is 651 nM. Turning to `O=C(O)c1cc(/C=C/c2ccccc2)ccc1O` [VN-359, (E)-2-hydroxy-5-styrylbenzoic acid], a half-maximal response in assay [2] (setting [6]) (EC50) required 0.16 nM. On to `O=C(O)c1cccc(/C=C/c2cccc(OCCN3CCOCC3)c2)c1` [VN-362, (E)-3-(3-(2-morpholinoethoxy)styryl)benzoic acid], for which the EC50 in assay [2] (setting [6]) was 1.3 nM.

As for `O=C(O)c1cccc(/C=C/c2ccc(OCCN3CCOCC3)cc2)c1` [VN-363, (E)-3-(4-(2-morpholinoethoxy)styryl)benzoic acid], in assay [2] (setting [6]), the EC50 stood at 0.97 nM. `O=C(O)c1cccc(/C=C/c2nccs2)c1` [VN-365, (E)-3-(2-(thiazol-2-yl)vinyl)benzoic acid] gave an EC50 in assay [2] (setting [9]) of 180 nM. Same read-out and setting: next, `O=C(O)c1cccc(/C=C/c2cscn2)c1` [VN-366, (E)-3-(2-(thiazol-4-yl)vinyl)benzoic acid]: 1370 nM; `O=C(O)c1cccc(/C=C/c2cncs2)c1` [VN-367, (E)-3-(2-(thiazol-5-yl)vinyl)benzoic acid]: 1060 nM; `O=C(O)c1cccc(/C=C/c2cccs2)c1` [VN-368, (E)-3-(2-(thiophen-2-yl)vinyl)benzoic acid]: 0.79 nM. `O=C(O)c1cccc(/C=C/c2ccsc2)c1` [VN-369, (E)-3-(2-(thiophen-3-yl)vinyl)benzoic acid] displayed an EC50 in assay [2] (setting [9]) of 1.23 nM. Molecule `O=C(O)c1cccc(/C=C/c2ccc(Cl)cc2)c1` [VN-371, (E)-3-(4-chlorostyryl)benzoic acid] came in with an EC50 in assay [2] (setting [6]) of 1.4 nM.

Take `O=C(O)c1cccc(/C=C\c2ccc(F)cc2)c1` [VN-372, (Z)-3-(4-fluorostyryl)benzoic acid]: in assay [2] (setting [6]), the EC50 came out at 10.4 nM.

`O=C(O)c1cccc(/C=C\c2cccs2)c1` [VN-373, (Z)-3-(2-(thiophen-2-yl)vinyl)benzoic acid] returned an EC50 in assay [2] (setting [9]) of 0.76 nM. For `O=C(O)c1cccc([C@@H]2C[C@@H]2c2ccccc2)c1` [VN-376, 3-((1R,2S)-2-phenylcyclopropyl)benzoic acid], a half-maximal response in assay [2] (setting [8]) (EC50) required 527 nM. In assay [2] (setting [6]), `O=C(O)c1cccc(/C=C\c2ccc(Cl)cc2)c1` [VN-379, (Z)-3-(4-chlorostyryl)benzoic acid] yielded a half-maximal effective concentration (EC50) of 3.9 nM. On to `O=C(O)c1cccc(/C=C\c2cocn2)c1` [VN-380, (Z)-3-(2-(oxazol-4-yl)vinyl)benzoic acid], for which it took 0.17 nM to reach a half-maximal effect in assay [2] (setting [9]) (EC50). Consider `O=C(O)c1cccc(/C=C\c2cccnc2)c1` [VN-381, (Z)-3-(2-(pyridin-3-yl)vinyl)benzoic acid], for which the EC50 in assay [2] (setting [9]) was 0.73 nM. In turn, `O=C(O)c1cccc(/C=C\c2cncs2)c1` [VN-386, (Z)-3-(2-(thiazol-5-yl)vinyl)benzoic acid] yielded an EC50 in assay [2] (setting [9]) of 2.8 nM. For `O=C(O)c1cccc(/C=C\c2ccncc2)c1` [VN-387, (Z)-3-(2-(pyridin-4-yl)vinyl)benzoic acid], the EC50 in assay [2] (setting [9]) came to 1.7 nM. With `O=C(O)c1cccc(/C=C\c2cccc(OCCN3CCOCC3)c2)c1` [VN-388, (Z)-3-(3-(2-morpholinoethoxy)styryl)benzoic acid], the “EC50 nM” value in assay [2] (setting [6]) is recorded as “Ambiguous”. The molecule `O=C(O)c1cccc(/C=C/c2ccc(F)cc2)c1` [VN-390, (E)-3-(4-fluorostyryl)benzoic acid] had an EC50 in assay [2] (setting [6]) of 3.4 nM.
